{"source": "paper PMC9610610", "about": "(Vaccines, 2022)", "target": "HLA-DQ8 (Homo sapiens, UniProt P01909+P01920, A209T/A45G/C70Q/D89A/DUP78-78/E183D/E77G/F237L/G63E/H199R/I129T/K197E/L178F/L74F/L98V/Q57E/Q76R/S185I/S97I/T217I/T49S/V73L/Y58L)", "sequence (P01920 33-261 A45G/Y58L/E77G/D89A/H199R/T217I limits assumed, other chains not shown)": "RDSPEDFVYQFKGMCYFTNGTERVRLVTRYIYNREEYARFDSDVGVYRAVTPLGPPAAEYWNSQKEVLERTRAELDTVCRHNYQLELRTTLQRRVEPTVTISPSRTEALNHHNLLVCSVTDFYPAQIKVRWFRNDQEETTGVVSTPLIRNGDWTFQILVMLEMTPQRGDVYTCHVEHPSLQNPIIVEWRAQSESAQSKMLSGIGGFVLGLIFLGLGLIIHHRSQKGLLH", "test": "biochemical", "format": "binding", "note": "pIC50: −log10 of the molar value. Where no end group is shown, it is not given here."}
{"sequence": "ADVEVYRAVTPLGPPD [DQB45–57]", "values": [{"measurement": "pIC50", "result": 7.00}]}
